Measurements from patent US6426340B1, “Prevention and treatment of colorectal cancer by 6-fluoroursodeoxycholic acid (6-FUDCA)” (Novartis AG, priority 1996, dated 2002).
Marks after values point to notes of the source that are not given here.

Experiments:
[1] = tested on: aberrant crypt foci (ACF) in AOM rat model; assay: Development of ACF in AOM rat model, 5 weeks study; type: in vivo, Male albino Fischer-344 rats; conditions: diet with UDCA 0.4%, 6-FUDCA 0.4% or piroxicam 75 ppm, means ± Std. Dev., N=10
Text: Animals. Male albino Fischer-344 rats, initially weighing approximately 90-130 g, were used in these experiments. All diets were obtained from Dyets, Inc. (Bethlehem, Pa.). On arrival, the animals were quarantined for 1 week and then divided into the following experimental groups: Group 1—Standard AIN-76 diet only with no added agents (control group). Group 2—AIN-76 diet plus UDCA 0.4%. Group 3—AIN-76 diet plus 6-FUDCA 0.4%. Group 4—AIN-76 diet plus piroxicam 75 ppm (included for a known positive drug control). Protocol of Study. All rats were fed their assigned diets for 2 weeks, following which 10 rats in each group (except control group) were given s.c. injections of AOM (Sigma Chemical Co.; 15 mg/kg body weight) once a week for 2 weeks, while 5 rats received AOM vehicle. Control rats received AOM vehicle only. A week later (at week 3) rats received a second dose of carcinogen (AOM 15 mg/kg) while control rats received AOM vehicle. Each group was then maintained on their respective experimental diet for an additional 3 weeks. At this time, day 42, the rats were sacrificed; their colons were removed, opened, washed with normal saline, and examined macroscopically and microscopically for the presence of tumors. Aberrant crypts were quantified by direct microscopic counting of methylene blue stained whole colon. Stool specimens were removed from the colon at the time of termination, snap frozen, and maintained frozen for subsequent analysis of fecal bile acids. Statistical Methods. The data were analyzed using the Aspin-Welch t-test, two sided. A value of P<0.05 was considered significant.

[2] = tested on: aberrant crypt foci (ACF) in AOM rat model; assay: Development of ACF in AOM rat model, 12 weeks study; type: in vivo, Male albino Fischer-344 rats; conditions: for Multiplicity of ACF / Nr of ACF / Total AC count: AOM rat model, 12 weeks study, diet supplementation, means ± Std. Dev., N=12
Method: Animals. Male albino Fischer-344 rats, initially weighing approximately 90-130 g, were used in these experiments. All diets were obtained from Dyets, Inc. (Bethlehem, Pa.). On arrival, the animals were quarantined for 1 week and then divided into the following experimental groups: Protocol of Study. […] Control rats received AOM vehicle only. A week later (at week 3) rats received a second dose of carcinogen (AOM 15 mg/kg) while control rats received AOM vehicle. […] Aberrant crypts were quantified by direct microscopic counting of methylene blue stained whole colon. Stool specimens were removed from the colon at the time of termination, snap frozen, and maintained frozen for subsequent analysis of fecal bile acids. Statistical Methods. The data were analyzed using the Aspin-Welch t-test, two sided. A value of P<0.05 was considered significant. The protocol for this Example was the same as that for Example I except that 12 rats were included in each AOM-treated group and 6 rats in each control group. Carcinogen was administered on Days 14 and 21. The rats were then continued on the diets containing the experimental drugs for an additional 10 weeks. The following tables set forth the data obtained in the study.

[3] = Analysis of fecal bile acid levels in the diet-supplemented rats; type: in vivo
Method: Protocol of Study. All rats were fed their assigned diets for 2 weeks, following which 10 rats in each group (except control group) were given s.c. injections of AOM (Sigma Chemical Co.; 15 mg/kg body weight) once a week for 2 weeks, while 5 rats received AOM vehicle. Control rats received AOM vehicle only. A week later (at week 3) rats received a second dose of carcinogen (AOM 15 mg/kg) while control rats received AOM vehicle. Each group was then maintained on their respective experimental diet for an additional 3 weeks. At this time, day 42, the rats were sacrificed; their colons were removed, opened, washed with normal saline, and examined macroscopically and microscopically for the presence of tumors. Aberrant crypts were quantified by direct microscopic counting of methylene blue stained whole colon. Stool specimens were removed from the colon at the time of termination, snap frozen, and maintained frozen for subsequent analysis of fecal bile acids.
Therefore, 6-FUDCA enriches rat bile with therapeutic bile acid to a greater extent then can UDCA. Furthermore, 6-FUDCA reduces the formation of bile acids which are potentially toxic to the colonic mucosa.

[4] = Physicochemical properties of 6-FUDCA compared with UDCA
Text: Additionally, the retention time on C-18 reverse phase HPLC was different for the two fluorinated diastereoisomers. […] The invention relates to the single isomers or diastereoisomers of 6-FUDCA and mixtures thereof.

[5] = tested on: intestinal bacterial flora; conditions: 7-dehydroxylation by intestinal bacterial flora; cited from earlier work

Row | Compound | Multiplicity of ACF [1] | Nr of ACF [1] | Total AC count [1] | Multiplicity of ACF [2] | Nr of ACF [2] | Total AC count [2] | Aberrant crypts per aberrant crypt focus (FIG. 3) ([2]; rats treated with 6-FUDCA, AOM model) | DC and hyoDC in the feces ([3]; 6-FUDCA rats compared with UDCA rats) | Metabolism by bacteria in the gut ([3]; rat, fecal bile acid analysis) | Hydrophilicity (C-18 reverse phase HPLC) ([4]; 6-α-epimer, with respect to UDCA) | Critical micellar concentration ([4]; compared with UDCA) | Critical micellar pH ([4]; compared with UDCA) | Water solubility ([4]; compared with UDCA) | Resistance to bacterial dehydroxylation [5]
1 | C[C@H](CCC(=O)O)[C@H]1CC[C@H]2[C@@H]3[C@@H](O)[C@H](F)[C@@H]4C[C@H](O)CC[C@]4(C)[C@H]3CC[C@]12C [6-FUDCA, 3α, 7βdihydroxy-6α-fluoro-5β-cholanoic acid] | 1.9 ± 0.1^b) | 84.4 ± 16.3 | 160.7 ± 34.6^b) | 2.7 ± 0.3^b) | 130.1 ± 35.5^b) | 350.6 ± 87.3^b) | aberrant crypt foci with fewer aberrant crypts | less DC and hyoDC are seen in the feces of 6-FUDCA rats than in UDCA rats | not metabolized by bacteria in the gut | increased hydrophilicity with respect to UDCA | slightly lower | lower than that of UDCA | higher than that of UDCA | extremely resistant to bacterial dehydroxylation
2 | CN1C(C(=O)Nc2ccccn2)=C(O)c2ccccc2S1(=O)=O [PIROXICAM, piroxicam] | 3.0 ± 0.2 | 62.9 ± 9.4^b) | 190.1 ± 30.7^b) | 3.4 ± 0.3 | 156.3 ± 34.0^b) | 625.3 ± 136.1^b) | – | – | – | – | – | – | – | –
3 | C[C@H](CCC(=O)O)[C@H]1CC[C@H]2[C@@H]3[C@@H](O)C[C@@H]4C[C@H](O)CC[C@]4(C)[C@H]3CC[C@]12C [UDCA, ursodeoxycholic acid] | 2.0 ± 0.2^b) | 108.1 ± 34.7 | 218.3 ± 73.3^b) | 2.8 ± 0.2^b) | 161.2 ± 37.8^b) | 445.5 ± 87.4^b) | – | – | – | – | – | – | – | –
